Results: patent US12552798B2, “Substituted imidazolecarboxamide as Bruton's tyrosine kinase inhibitors” (Henan Zhiwei Biomedicine Co., Ltd., priority 2019, dated 2026)
Read-outs that look alike come from different tables or passages of the source.

Experiments:
BTK = BTK (Homo sapiens (Human), UniProt Q06187); test: BTK kinase inhibitory assay (ELISA); assay type: biochemical; details: 3 μmol/L ATP
Description: (§1) BTK, EGFR, BMX, or ITK Inhibitory Assay Procedure for BTK, BMX, EGFR and ITK Inhibitory Assay:
(§2) Kinase inhibitory activities of compounds were evaluated using the Enzyme-linked immunosorbent assay (ELISA). The kinase enzyme of BTK, BMX, EGFR and ITK were purchased from Carna Bioscience (Kobe, Japan). A total of 10 ng/mL antiphosphotyrosine (PY713) antibody (abcam, Cambridge Science Park, UK) was precoated in 96-well ELISA plates. The kinase enzymes in each reaction well were set to BTK (101.25 ng/mL), BMX (90 ng/mL), EGFR (90 ng/mL) or ITK (120 ng/mL) and incubated with indicated compounds in 1× reaction buffer (50 mmol/L HEPES pH 7.4, 20 mmol/L MgCl2, 0.1 mmol/L MnCl2, 1 mmol/L DTT) containing 20 μmol/L (the final concentration of substrate in ITK reaction was 30 μmol/L) substrate (NH2-ETVYSEVRK-biotin) at 25° C. for 1 h. Then, a total of 3 μmol/L ATP was added and the reaction was continued for 2 hrs. The products of reaction were transferred into 96-well ELISA plates containing antibody and incubated at 25° C. for 30 min. After incubation, the wells were washed with PBS and then incubated with horseradish peroxidase […]-conjugated streptavidin. The wells were visualized using 3,3′,5,5′-tetramethylbenzidine (TMB), and chromogenic reaction was ended with 2 mol/L H2SO4, the absorbance was read with a multimode plate reader (PerkinElmer, USA) at 450 nm. IC50 values and curve fits were obtained using Prism (GraphPad Software).

EGFR = EGFR (Homo sapiens (Human), UniProt P00533); test: EGFR kinase inhibitory assay (ELISA); assay type: biochemical; details: for Selectivity Ratio (BTK and EGFR): EGFR IC50 relative to BTK IC50; for IC50: ELISA, 3 μmol/L ATP
Sequence of EGFR (P00533 25-1210): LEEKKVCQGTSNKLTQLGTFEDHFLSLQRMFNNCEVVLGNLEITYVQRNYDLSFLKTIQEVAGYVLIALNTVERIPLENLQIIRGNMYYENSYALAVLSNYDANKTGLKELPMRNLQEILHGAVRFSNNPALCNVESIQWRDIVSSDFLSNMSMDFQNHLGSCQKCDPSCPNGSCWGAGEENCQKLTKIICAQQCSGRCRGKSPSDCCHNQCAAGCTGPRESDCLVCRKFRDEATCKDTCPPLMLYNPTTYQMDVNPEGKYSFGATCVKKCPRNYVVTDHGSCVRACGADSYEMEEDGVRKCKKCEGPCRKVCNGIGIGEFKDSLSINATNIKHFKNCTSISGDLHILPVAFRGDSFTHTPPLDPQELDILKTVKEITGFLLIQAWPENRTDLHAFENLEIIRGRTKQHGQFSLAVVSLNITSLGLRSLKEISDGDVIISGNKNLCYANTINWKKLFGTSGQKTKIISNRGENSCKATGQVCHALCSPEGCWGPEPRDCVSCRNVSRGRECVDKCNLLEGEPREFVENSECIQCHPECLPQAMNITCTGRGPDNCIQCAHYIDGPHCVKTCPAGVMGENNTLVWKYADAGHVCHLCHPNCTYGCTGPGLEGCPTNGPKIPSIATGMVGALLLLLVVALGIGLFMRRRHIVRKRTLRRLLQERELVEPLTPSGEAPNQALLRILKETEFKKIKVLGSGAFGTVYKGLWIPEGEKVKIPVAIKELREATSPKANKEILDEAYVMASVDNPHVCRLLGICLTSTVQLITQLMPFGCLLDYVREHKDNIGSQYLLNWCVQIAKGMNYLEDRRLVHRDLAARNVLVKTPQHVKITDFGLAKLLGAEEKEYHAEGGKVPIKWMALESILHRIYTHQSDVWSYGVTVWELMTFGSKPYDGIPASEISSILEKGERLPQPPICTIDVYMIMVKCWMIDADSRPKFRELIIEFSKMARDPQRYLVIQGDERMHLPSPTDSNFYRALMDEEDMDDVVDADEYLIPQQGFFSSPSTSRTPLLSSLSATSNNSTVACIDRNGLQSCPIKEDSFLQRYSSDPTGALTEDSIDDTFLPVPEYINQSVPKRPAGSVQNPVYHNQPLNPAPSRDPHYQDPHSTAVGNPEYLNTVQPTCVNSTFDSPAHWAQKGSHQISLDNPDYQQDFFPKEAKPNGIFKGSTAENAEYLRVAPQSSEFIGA
Description: as §1, §2

ITK = ITK (Homo sapiens (Human), UniProt Q08881); test: ITK kinase inhibitory assay (ELISA); assay type: biochemical; details: for IC50: ELISA, 3 μmol/L ATP; for Selectivity Ratio (BTK and ITK): ITK IC50 relative to BTK IC50
Sequence of ITK (Q08881 whole entry): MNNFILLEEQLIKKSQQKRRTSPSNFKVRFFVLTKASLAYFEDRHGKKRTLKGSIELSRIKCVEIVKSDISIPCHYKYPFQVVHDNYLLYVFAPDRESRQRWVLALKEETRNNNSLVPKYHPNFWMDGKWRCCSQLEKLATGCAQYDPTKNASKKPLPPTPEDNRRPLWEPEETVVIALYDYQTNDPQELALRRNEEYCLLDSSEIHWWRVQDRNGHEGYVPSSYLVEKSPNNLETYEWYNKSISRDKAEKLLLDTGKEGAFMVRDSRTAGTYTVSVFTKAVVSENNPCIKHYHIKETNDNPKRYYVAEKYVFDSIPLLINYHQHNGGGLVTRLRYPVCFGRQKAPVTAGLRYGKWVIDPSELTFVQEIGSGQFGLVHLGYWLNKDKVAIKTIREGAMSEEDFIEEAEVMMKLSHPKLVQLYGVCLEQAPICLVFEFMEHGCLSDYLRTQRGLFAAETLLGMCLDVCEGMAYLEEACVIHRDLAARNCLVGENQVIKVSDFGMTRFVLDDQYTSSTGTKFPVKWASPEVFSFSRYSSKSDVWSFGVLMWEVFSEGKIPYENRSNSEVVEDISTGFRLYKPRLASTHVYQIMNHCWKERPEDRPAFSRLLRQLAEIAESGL
Description: as §1, §2

BMX = BMX (Homo sapiens (Human), UniProt P51813); test: BMX kinase inhibitory assay (ELISA); assay type: biochemical; details: for Selectivity Ratio (BTK and BMX): BMX IC50 relative to BTK IC50; for IC50: ELISA, 3 μmol/L ATP
Sequence of BMX (P51813 whole entry): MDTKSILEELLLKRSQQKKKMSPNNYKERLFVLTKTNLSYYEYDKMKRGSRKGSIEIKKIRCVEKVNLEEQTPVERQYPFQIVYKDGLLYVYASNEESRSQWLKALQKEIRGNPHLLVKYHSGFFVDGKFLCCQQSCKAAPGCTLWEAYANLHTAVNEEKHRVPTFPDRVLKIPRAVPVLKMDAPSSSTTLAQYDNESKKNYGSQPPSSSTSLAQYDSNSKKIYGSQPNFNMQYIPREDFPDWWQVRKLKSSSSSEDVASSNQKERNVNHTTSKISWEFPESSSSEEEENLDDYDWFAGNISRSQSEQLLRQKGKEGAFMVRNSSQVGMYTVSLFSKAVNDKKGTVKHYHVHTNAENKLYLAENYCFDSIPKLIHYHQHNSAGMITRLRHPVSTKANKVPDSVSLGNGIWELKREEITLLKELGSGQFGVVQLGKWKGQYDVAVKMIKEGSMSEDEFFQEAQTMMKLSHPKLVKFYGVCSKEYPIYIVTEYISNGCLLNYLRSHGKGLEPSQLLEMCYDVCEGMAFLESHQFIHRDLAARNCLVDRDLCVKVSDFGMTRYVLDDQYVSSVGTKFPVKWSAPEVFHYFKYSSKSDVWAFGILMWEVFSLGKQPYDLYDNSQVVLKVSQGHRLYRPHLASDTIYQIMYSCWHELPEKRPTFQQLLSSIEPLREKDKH
Description: as §1, §2

293T = test: Cell antiproliferative activity assay (CellTiter-Glo), 293T; assay type: cell-based; details: 72 hs, read-out: Cell Growth IC50 (nM) 293T
Description: (§3) Cell Antiproliferative Activity Assay
(§4) Cell antiproliferative activity was evaluated by the CellTiter-Glo (Promega, USA) assay. Make 1000× compounds solution in DMSO, add 1 μl 1000× compounds to […] growth medium to make 20× compounds. Dilute cell suspensions in growth medium to desired density and 95 μl were taken to 96-well plate. Add 5 μl 20× compounds into 96-well plate according to the plate map. Final DMSO concentration in each well was 0.1%. Then the cell was incubated at 37° C., 5% CO2 for 72 hs. Equilibrate the assay plate to room temperature before measurement. Add 20 μl of CellTiter-Glo© Reagent into each well. Mix contents for 2 minutes on an orbital shaker to induce cell lysis. Incubate at room temperature for 10 minutes to stabilize luminescent signal. Record luminescence using EnVision Multilabel Reader (PerkinElmer). Cell viability (CV %) was calculated relative to vehicle (DMSO) treated control wells using following formula: Cell viability (%)=(RLU compound−RLU blank)/(RLU control−RLU blank)*100%. The IC50 values were calculated using GraphPad Prism 6.0 software, fitting to a 4-parameter equation to generate concentration response curves. All assays were conducted with three parallel samples and three repetitions.

TMD8 = test: Cell antiproliferative activity assay (CellTiter-Glo), TMD8; assay type: cell-based; details: read-out: Cell Growth IC50 (nM) TMD8
Description: as §3, §4

Sequence of BTK (Q06187 whole entry): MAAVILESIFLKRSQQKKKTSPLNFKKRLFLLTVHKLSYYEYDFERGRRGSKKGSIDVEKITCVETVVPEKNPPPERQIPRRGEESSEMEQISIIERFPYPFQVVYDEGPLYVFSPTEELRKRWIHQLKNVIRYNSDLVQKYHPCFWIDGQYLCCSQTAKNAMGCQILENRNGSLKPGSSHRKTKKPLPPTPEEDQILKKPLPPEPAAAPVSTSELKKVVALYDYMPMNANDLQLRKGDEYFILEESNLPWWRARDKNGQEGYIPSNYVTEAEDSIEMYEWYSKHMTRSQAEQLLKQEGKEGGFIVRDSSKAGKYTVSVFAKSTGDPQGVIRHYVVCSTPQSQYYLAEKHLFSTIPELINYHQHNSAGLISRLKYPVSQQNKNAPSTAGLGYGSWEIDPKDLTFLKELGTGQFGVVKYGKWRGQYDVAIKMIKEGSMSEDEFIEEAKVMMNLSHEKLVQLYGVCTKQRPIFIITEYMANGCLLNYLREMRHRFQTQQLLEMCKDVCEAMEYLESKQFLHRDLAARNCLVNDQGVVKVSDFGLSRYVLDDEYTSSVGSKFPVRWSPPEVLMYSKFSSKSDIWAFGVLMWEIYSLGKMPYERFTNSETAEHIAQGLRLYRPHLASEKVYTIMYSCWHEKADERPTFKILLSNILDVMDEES

In the case of `CC#CC(=O)N1CCC(C2CCNn3c2nc(-c2ccc(Oc4ccccc4)cc2)c3C(N)=O)CC1` (stereo not shown) [Example 2, 8-[1-(1-Oxo-but-2-ynyl)-piperidin-4-yl]-2-(4-phenoxy-phenyl)-5,6,7,8-tetrahydro-imidazo[1,2-b]pyridazine-3-carboxamide], the IC50 (BTK) is reported as 76.4 nM.

`N#C/C(=C\C1CC1)C(=O)N1CCC(C2CCNn3c2nc(-c2ccc(Oc4ccccc4)cc2)c3C(N)=O)CC1` (stereo not shown) [Example 8, 8-[1-(2-Cyano-3-cyclopropyl-acryloyl)-piperidin-4-yl]-2-(4-phenoxy-phenyl)-5,6,7,8-tetrahydro-imidazo[1,2-b]pyridazine-3-carboxamide] was tested, and the IC50 (BTK) was 285 nM.

`C=CC(=O)N1CCC(C2CCn3c2nc(-c2ccc(Oc4ccccc4)cc2)c3C(N)=O)CC1` (stereo not shown) [Example 26, 7-(1-acryloylpiperidin-4-yl)-2-(4-phenoxyphenyl)-6,7-dihydro-5H-pyrrolo[1,2-a]imidazole-3-carboxamide] was tested, and the “Selectivity Ratio (BTK and EGFR)” value (EGFR) was 9.75, the IC50 (EGFR) was 81.9 nM and the IC50 (ITK) was 4660 nM. For the same molecule, the “Selectivity Ratio (BTK and ITK)” value (ITK) was 555.2, the IC50 (BTK) was 8.4 nM and the “Selectivity Ratio (BTK and BMX)” value (BMX) was 3.70. The IC50 (BMX) was 31.1 nM.

Work on `NC(=O)c1c(-c2ccc(Oc3ccc(F)cc3)cc2)nc2n1NCCC2C1CCN(C(=O)/C=C/C(F)(F)F)CC1` (stereo not shown) [Example 14, (E)-2-(4-(4-fluorophenoxy)phenyl)-8-(1-(4,4,4-trifluorobut-2-enoyl)piperidin-4-yl)-5,6,7,8-tetrahydroimidazo[1,2-b]pyridazine-3-carboxamide] yielded an IC50 (BTK) of 61.5 nM.

In the case of `COc1ccc(Oc2ccc(-c3nc4n(c3C(N)=O)NCCC4C3CCN(C(=O)/C=C/C(F)(F)F)CC3)cc2)cc1` (stereo not shown) [Example 17, (E)-2-(4-(4-methoxyphenoxy)phenyl)-8-(1-(4,4,4-trifluorobut-2-enoyl)piperidin-4-yl)-5,6,7,8-tetrahydroimidazo[1,2-b]pyridazine-3-carboxamide], the IC50 (BTK) is reported as 212 nM.

In the case of `C=CC(=O)N1CCC(C2CCNn3c2nc(-c2ccc(Oc4ccccc4)c(OC)c2)c3C(N)=O)CC1` (stereo not shown) [Example 29, 8-(1-acryloylpiperidin-4-yl)-2-(3-methoxy-4-phenoxyphenyl)-5,6,7,8-tetrahydroimidazo[1,2-b]pyridazine-3-carboxamide], the IC50 (BTK) is reported as 46.5 nM.

Molecule `C=CC(=O)N1CCC(C2CCNn3c2nc(-c2ccc(Oc4ccc(OC)cc4)cc2)c3C(N)=O)CC1` (stereo not shown) [Example 15, 8-(1-acryloylpiperidin-4-yl)-2-(4-(4-methoxyphenoxy)phenyl)-5,6,7,8-tetrahydroimidazo[1,2-b]pyridazine-3-carboxamide] has an IC50 (BTK) of 42.6 nM.

For `C=CC(=O)N1CCC(C2CCNn3c2nc(-c2ccc(Oc4ccccc4)cc2)c3C(N)=O)CC1` (stereo not shown) [Example 1, 8-(1-acryloylpiperidin-4-yl)-2-(4-phenoxyphenyl)-5,6,7,8-tetrahydroimidazo[1,2-b]pyridazine-3-carboxamide], the IC50 (293T; Homo sapiens, HEK-293T) was 573000 nM, the “Selectivity Ratio (BTK and EGFR)” value (EGFR) was 19.48 and the IC50 (EGFR) was 89.6 nM. The IC50 (TMD8; Homo sapiens, TMD8, TMD8, 72 hs) was 12.3 nM, the IC50 (ITK) was 13600 nM and the “Selectivity Ratio (BTK and ITK)” value (ITK) was 2945. The IC50 (BTK) was 4.6 nM, the “Selectivity Ratio (BTK and BMX)” value (BMX) was 5.80 and the IC50 (BMX) was 26.7 nM.

In the case of `C=CC(=O)N1CCC(C2CCNn3c2nc(-c2ccc(OC)cc2)c3C(N)=O)CC1` (stereo not shown) [Example 27, 8-(1-acryloylpiperidin-4-yl)-2-(4-methoxyphenyl)-5,6,7,8-tetrahydroimidazo[1,2-b]pyridazine-3-carboxamide], the IC50 (BTK) is reported as 242 nM.

For `CC#CC(=O)N1CCC(C2CCNn3c2nc(-c2ccc(Oc4ccc(OC)cc4)cc2)c3C(N)=O)CC1` (stereo not shown) [Example 16, 8-(1-(but-2-ynoyl)piperidin-4-yl)-2-(4-(4-methoxyphenoxy)phenyl)-5,6,7,8-tetrahydroimidazo[1,2-b]pyridazine-3-carboxamide], the IC50 (BTK) was 778 nM.

For `C=CC(=O)N1CCC(C2CCn3c2nc(-c2ccc(Oc4ccccc4)c(OC)c2)c3C(N)=O)CC1` (stereo not shown) [Example 28, 7-(1-acryloylpiperidin-4-yl)-2-(3-methoxy-4-phenoxyphenyl)-6,7-dihydro-5H-pyrrolo[1,2-a]imidazole-3-carboxamide], the “Selectivity Ratio (BTK and EGFR)” value (EGFR) was 35.66, the IC50 (EGFR) was 382 nM and the IC50 (ITK) was > 30000 nM. The “Selectivity Ratio (BTK and ITK)” value (ITK) was >2803.7, the IC50 (BTK) was 10.7 nM and the “Selectivity Ratio (BTK and BMX)” value (BMX) was 7.51. The IC50 (BMX) was 80.3 nM.

Molecule `C=CC(=O)N1CCC(C2CCNn3c2nc(-c2ccc(Oc4ccc(F)cc4)cc2)c3C(N)=O)CC1` (stereo not shown) [Example 12, 8-(1-acryloylpiperidin-4-yl)-2-(4-(4-fluorophenoxy)phenyl)-5,6,7,8-tetrahydroimidazo[1,2-b]pyridazine-3-carboxamide] has an IC50 (BTK) of 49.4 nM.

With `C=CC(=O)N1CCC(C2CCNn3c2nc(-c2ccc(Oc4ccccc4)cc2)c3C(N)=O)C1` (stereo not shown) [Example 21, 8-(1-acryloylpyrrolidin-3-yl)-2-(4-phenoxyphenyl)-5,6,7,8-tetrahydroimidazo[1,2-b]pyridazine-3-carboxamide] the IC50 (BTK) was 132 nM.

With `CN(C)C/C=C/C(=O)N1CCC(C2CCNn3c2nc(-c2ccc(Oc4ccccc4)cc2)c3C(N)=O)CC1` (stereo not shown) [Example 25, (E)-8-(1-(4-(dimethylamino)but-2-enoyl)piperidin-4-yl)-2-(4-phenoxyphenyl)-5,6,7,8-tetrahydroimidazo[1,2-b]pyridazine-3-carboxamide] the IC50 (BTK) was 185 nM.

`C=CC(=O)N1CCC(C2CCNn3c2nc(-c2ccc(Oc4ccccc4)cc2)c3C(N)=O)CC1` (single isomer, unassigned) [1b (peak 2)] was tested, and the IC50 (293T) was 5240 nM, the “Selectivity Ratio (BTK and EGFR)” value (EGFR) was 5.87 and the IC50 (EGFR) was 170 nM. The IC50 (TMD8; TMD8, 72 hs) was 102 nM, the IC50 (ITK) was > 30000 nM and the “Selectivity Ratio (BTK and ITK)” value (ITK) was >1038. The IC50 (BTK) was 28.9 nM, the “Selectivity Ratio (BTK and BMX)” value (BMX) was 1.86 and the IC50 (BMX) was 53.9 nM.

Work on `CC#CC(=O)N1CCC(C2CCNn3c2nc(-c2ccc(Oc4ccc(F)cc4)cc2)c3C(N)=O)CC1` (stereo not shown) [Example 13, 8-(1-(but-2-ynoyl)piperidin-4-yl)-2-(4-(4-fluorophenoxy)phenyl)-5,6,7,8-tetrahydroimidazo[1,2-b]pyridazine-3-carboxamide] yielded an IC50 (BTK) of 122 nM.

In the case of `C=CC(=O)Nc1ccccc1C1CCNn2c1nc(-c1ccc(Oc3ccccc3)cc1)c2C(N)=O` (stereo not shown) [Example 22, 8-(2-acrylamidophenyl)-2-(4-phenoxyphenyl)-5,6,7,8-tetrahydroimidazo[1,2-b]pyridazine-3-carboxamide], the “Selectivity Ratio (BTK and EGFR)” value (EGFR) is reported as 3.05, the IC50 (EGFR) is reported as 16.5 nM and the IC50 (ITK) is reported as 27900 nM. The “Selectivity Ratio (BTK and ITK)” value (ITK) was 5160.6, the IC50 (BTK) was 5.4 nM and the “Selectivity Ratio (BTK and BMX)” value (BMX) was 11.94. The IC50 (BMX) was 64.5 nM.

`C=CC(=O)N1CC(C2CCNn3c2nc(-c2ccc(Oc4ccccc4)cc2)c3C(N)=O)C1` (stereo not shown) [Example 18, 8-(1-acryloylazetidin-3-yl)-2-(4-phenoxyphenyl)-5,6,7,8-tetrahydroimidazo[1,2-b]pyridazine-3-carboxamide] gave an IC50 (BTK) of 37.4 nM.
